Measurements taken from PubChem BioAssay AID1963841 (Molecular Pharmacology Branch, DTP, NCI, 2024).

Test system: 439559-082-T-J2-PDC spheroid viability
Experiment: Anticancer human tumor 439559-082-T-J2-PDC patient-derived colon adenocarcinoma cell line growth inhibition [POLQ]
Details: spheroids with HUVEC and MSC; for IC50: curve of first compound; for viability, T/C: stronger effect = lower value
In short: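 Growth inhibition in 3D: complex spheroids (tumor PDC, HUVEC, MSC) treated with POLQ inhibitor combinations; where Cmax unknown, highest tested concentration 10 microM, except SN-38 at 1 microM.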

[1] = second compound 0.0316 µM, first compound 0.0316 µM
[2] = second compound 0.0316 µM, first compound 0.1 µM
[3] = second compound 0.1 µM, first compound 0.0316 µM
[4] = second compound 0.1 µM, first compound 0.1 µM
[5] = second compound 0.316 µM, first compound 0.0316 µM
[6] = second compound 0.316 µM, first compound 0.1 µM
[7] = second compound 1 µM, first compound 0.0316 µM
[8] = second compound 1 µM, first compound 0.1 µM
[9] = second compound 3.16 µM, first compound 0.0316 µM
[10] = second compound 3.16 µM, first compound 0.1 µM
[11] = second compound 10 µM, first compound 0.0316 µM
[12] = second compound 10 µM, first compound 0.1 µM
[13] = second compound 0.0316 µM, first compound 0.316 µM
[14] = second compound 0.0316 µM, first compound 1 µM
[15] = second compound 0.0316 µM, first compound 3.16 µM
[16] = second compound 0.0316 µM, first compound 10 µM
[17] = second compound 0.1 µM, first compound 0.316 µM
[18] = second compound 0.1 µM, first compound 1 µM
[19] = second compound 0.1 µM, first compound 3.16 µM
[20] = second compound 0.1 µM, first compound 10 µM
[21] = second compound 0.316 µM, first compound 0.316 µM
[22] = second compound 0.316 µM, first compound 1 µM
[23] = second compound 0.316 µM, first compound 3.16 µM
[24] = second compound 0.316 µM, first compound 10 µM
[25] = second compound 1 µM, first compound 0.316 µM
[26] = second compound 1 µM, first compound 1 µM
[27] = second compound 1 µM, first compound 3.16 µM
[28] = second compound 1 µM, first compound 10 µM
[29] = second compound 3.16 µM, first compound 0.316 µM
[30] = second compound 3.16 µM, first compound 1 µM
[31] = second compound 3.16 µM, first compound 3.16 µM
[32] = second compound 3.16 µM, first compound 10 µM
[33] = second compound 10 µM, first compound 0.316 µM
[34] = second compound 10 µM, first compound 1 µM
[35] = second compound 10 µM, first compound 3.16 µM
[36] = second compound 10 µM, first compound 10 µM
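Further: spheroids exposed to compounds for seven days before readout.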
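Wherever viability, T/C is given: 100% = DMSO vehicle control viability.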

Compound: CC[C@@]1(O)C(=O)OCc2c1cc1n(c2=O)Cc2cc3c(CN(C)C)c(O)ccc3nc2-1 + Nc1ccc(C#CCN(C(=O)Cc2ncc(C(F)(F)F)cc2C(F)(F)F)c2ccc(F)cc2)nn1
- IC50 (second compound 0.0316 µM): > 100 nM
- IC50 (second compound 0.1 µM): > 100 nM
- IC50 (second compound 0.316 µM): > 100 nM
- IC50 (second compound 1 µM): > 100 nM
- IC50 (second compound 3.16 µM): > 100 nM
- IC50 (second compound 10 µM): > 100 nM
- viability, T/C (second compound 0.0316 µM, first compound 0.000316 µM): 104%
- viability, T/C (second compound 0.0316 µM, first compound 0.001 µM): 97%
- viability, T/C (second compound 0.0316 µM, first compound 0.00316 µM): 81.4%
- viability, T/C (second compound 0.0316 µM, first compound 0.01 µM): 108%
- viability, T/C [1]: 85.8%
- viability, T/C [2]: 82.8%
- viability, T/C (second compound 0.1 µM, first compound 0.000316 µM): 107%
- viability, T/C (second compound 0.1 µM, first compound 0.001 µM): 103%
- viability, T/C (second compound 0.1 µM, first compound 0.00316 µM): 96.3%
- viability, T/C (second compound 0.1 µM, first compound 0.01 µM): 105%
- viability, T/C [3]: 85.9%
- viability, T/C [4]: 76.3%
- viability, T/C (second compound 0.316 µM, first compound 0.000316 µM): 108%
- viability, T/C (second compound 0.316 µM, first compound 0.001 µM): 110%
- viability, T/C (second compound 0.316 µM, first compound 0.00316 µM): 101%
- viability, T/C (second compound 0.316 µM, first compound 0.01 µM): 104%
- viability, T/C [5]: 93.6%
- viability, T/C [6]: 79%
- viability, T/C (second compound 1 µM, first compound 0.000316 µM): 86.7%
- viability, T/C (second compound 1 µM, first compound 0.001 µM): 98.6%
- viability, T/C (second compound 1 µM, first compound 0.00316 µM): 83.8%
- viability, T/C (second compound 1 µM, first compound 0.01 µM): 97.9%
- viability, T/C [7]: 88.7%
- viability, T/C [8]: 75.4%
- viability, T/C (second compound 3.16 µM, first compound 0.000316 µM): 114%
- viability, T/C (second compound 3.16 µM, first compound 0.001 µM): 113%
- viability, T/C (second compound 3.16 µM, first compound 0.00316 µM): 92%
- viability, T/C (second compound 3.16 µM, first compound 0.01 µM): 88.4%
- viability, T/C [9]: 88%
- viability, T/C [10]: 89.9%
- viability, T/C (second compound 10 µM, first compound 0.000316 µM): 91.8%
- viability, T/C (second compound 10 µM, first compound 0.001 µM): 94.8%
- viability, T/C (second compound 10 µM, first compound 0.00316 µM): 87.9%
- viability, T/C (second compound 10 µM, first compound 0.01 µM): 90.2%
- viability, T/C [11]: 86%
- viability, T/C [12]: 75.9%

Compound: COc1cc(C2c3cc4c(cc3C(OC3OC5COC(C)OC5C(O)C3O)C3COC(=O)C23)OCO4)cc(OC)c1O (stereo unspecified) + Nc1ccc(C#CCN(C(=O)Cc2ncc(C(F)(F)F)cc2C(F)(F)F)c2ccc(F)cc2)nn1
- IC50 (second compound 0.0316 µM): > 10000 nM
- IC50 (second compound 0.1 µM): > 10000 nM
- IC50 (second compound 0.316 µM): > 10000 nM
- IC50 (second compound 1 µM): > 10000 nM
- IC50 (second compound 3.16 µM): > 10000 nM
- IC50 (second compound 10 µM): > 10000 nM
- viability, T/C [1]: 89.8%
- viability, T/C [2]: 110%
- viability, T/C [13]: 85.5%
- viability, T/C [14]: 79.4%
- viability, T/C [15]: 68%
- viability, T/C [16]: 71.3%
- viability, T/C [3]: 86.2%
- viability, T/C [4]: 94.3%
- viability, T/C [17]: 84.2%
- viability, T/C [18]: 85.5%
- viability, T/C [19]: 86.8%
- viability, T/C [20]: 81.7%
- viability, T/C [5]: 99.5%
- viability, T/C [6]: 106%
- viability, T/C [21]: 93.2%
- viability, T/C [22]: 84.1%
- viability, T/C [23]: 80.6%
- viability, T/C [24]: 88%
- viability, T/C [7]: 104%
- viability, T/C [8]: 93.5%
- viability, T/C [25]: 92.6%
- viability, T/C [26]: 91.5%
- viability, T/C [27]: 88.7%
- viability, T/C [28]: 70.6%
- viability, T/C [9]: 101%
- viability, T/C [10]: 109%
- viability, T/C [29]: 78.9%
- viability, T/C [30]: 84.8%
- viability, T/C [31]: 76%
- viability, T/C [32]: 75.9%
- viability, T/C [11]: 97.5%
- viability, T/C [12]: 84.4%
- viability, T/C [33]: 77.6%
- viability, T/C [34]: 86.2%
- viability, T/C [35]: 80%
- viability, T/C [36]: 70%

Compound: Nc1ccn(C2OC(CO)C(O)C2(F)F)c(=O)n1 (stereo unspecified) + Nc1ccc(C#CCN(C(=O)Cc2ncc(C(F)(F)F)cc2C(F)(F)F)c2ccc(F)cc2)nn1
- IC50 (second compound 0.0316 µM): 393 nM
- IC50 (second compound 0.1 µM): 583 nM
- IC50 (second compound 0.316 µM): 464 nM
- IC50 (second compound 1 µM): 519 nM
- IC50 (second compound 3.16 µM): 615 nM
- IC50 (second compound 10 µM): 1920 nM
- viability, T/C [1]: 81.7%
- viability, T/C [2]: 88.2%
- viability, T/C [13]: 54.1%
- viability, T/C [14]: 35.6%
- viability, T/C [15]: 32.7%
- viability, T/C [16]: 28.2%
- viability, T/C [3]: 89.5%
- viability, T/C [4]: 90.7%
- viability, T/C [17]: 63%
- viability, T/C [18]: 38.9%
- viability, T/C [19]: 33.9%
- viability, T/C [20]: 28.8%
- viability, T/C [5]: 91.1%
- viability, T/C [6]: 90.2%
- viability, T/C [21]: 57.4%
- viability, T/C [22]: 35.5%
- viability, T/C [23]: 33.2%
- viability, T/C [24]: 26.1%
- viability, T/C [7]: 86.4%
- viability, T/C [8]: 85.6%
- viability, T/C [25]: 59.1%
- viability, T/C [26]: 37.9%
- viability, T/C [27]: 32.7%
- viability, T/C [28]: 28.8%
- viability, T/C [9]: 86.3%
- viability, T/C [10]: 79.3%
- viability, T/C [29]: 62.9%
- viability, T/C [30]: 39.1%
- viability, T/C [31]: 36.1%
- viability, T/C [32]: 27.1%
- viability, T/C [11]: 90.1%
- viability, T/C [12]: 80%
- viability, T/C [33]: 81.9%
- viability, T/C [34]: 63.4%
- viability, T/C [35]: 39.3%
- viability, T/C [36]: 35.9%
